# Laboratory results taken from patent publication EP3939578A1, “COMPOUNDS FOR TREATMENT OR PREVENTION OF AN INFECTION RESULTING FROM A CORONAVIRUS AND/OR A CORONAVIRUS-INDUCED DISEASE” (Novaremed Ltd., priority 2020, dated 2022).
# Entries after “also recorded” stand apart in the source; their conditions may differ.
# Assays:
# [1] = Gravimetric Vapour Sorption (GVS); type: physicochemical
# Method: Approximately 10 mg of sample was placed into a wire-mesh vapour sorption balance pan and loaded into an 'IgaSorp' vapour sorption balance (Hiden Analytical Instruments). The sample was then dried by maintaining a 0% humidity environment until no further weight change was recorded. Subsequently, the sample was subjected to a ramping profile from 0 - 90 % RH at 10 % RH increments, maintaining the sample at each step until equilibration had been attained (99% step completion). Upon reaching equilibration, the % RH within the apparatus was ramped to the next step and the equilibration procedure repeated. After completion of the sorption cycle, the sample was then dried using the same procedure. The weight change during the sorption/desorption cycles were then monitored, allowing for the hygroscopic nature of the sample to be determined.
# [2] = Dog bioavailability tests of polymorphs 1 and 2; type: in vivo; conditions: compared with polymorph 1
# Description: The bioavailability of polymorphs 1 and 2 has also been tested and made available in PCT/EP2020/051528 as Example 3 and is incorporated herein by reference.
SMILES,"rapid moisture uptake between 70% and 80% RH ([1]; GVS, between 70% and 80% RH, hysteresis between adsorption and desorption cycles)","weight increase in second adsorption cycle ([1]; GVS, second adsorption cycle, at an RH of 40%, different form arising after the first cycle)","weight increase to 70% RH ([1]; GVS, to 70% RH)",bioavailability [2],"overall weight loss by the end of the two adsorption/desorption cycles ([1]; GVS, after two adsorption/desorption cycles, sharp weight loss at 90% RH)","weight gain to 80% RH ([1]; GVS, to 80% RH)",change of polymorphic form (XRPD) after GVS ([1]; XRPD after two adsorption/desorption cycles)
"C[C@H](O)COC[C@H](Cc1ccc(O)cc1)NC(=O)CCc1ccccc1 [polymorph 1, (S,S)-2-N(3-O-(propan-2-ol)-1-propyl-4-hydroxybenzene)-3-phenylpropylamide]",5.6%,> 2%,~1.3%,,,,
"C[C@H](O)COC[C@H](Cc1ccc(O)cc1)NC(=O)CCc1ccccc1 [polymorph 2, (S,S)-2-N(3-O-(propan-2-ol)-1-propyl-4-hydroxybenzene)-3-phenylpropylamide]",,,,higher than for polymorph 1; also recorded: better bioavailability as compared to polymorph 1; also recorded: exceptionally high,~1%,0.6%,no change of polymorphic form
